Measured values from paper PMC10057980, “Pharmacokinetics of Orally Applied Cannabinoids and Medical Marijuana Extracts in Mouse Nervous Tissue and Plasma: Relevance for Pain Treatment” (Pharmaceutics, 2023).

Experiments:
[1] = design: method as in PMID 12648025, PMID 17712819, PMID 30534073; settings: cited from earlier work
[2] = Cannabinoid and metabolite concentrations in plasma, brain and spinal cord after single oral gavage (LC-MS/MS, non-compartmental PK); settings: mice
[3] = test system: mechanical hypersensitivity in spared nerve injury (SNI) mice; test: Von Frey mechanical thresholds in the spared nerve injury (SNI) model; format: in vivo, C57BL/6J mice; settings: day 7 after surgery, single oral dose: 20 mg/kg pure CBD or THC, 40 mg/kg THC+ extract, 1560 mg/kg THC- extract, CBD effect at 4 h, p = 0.022 vs vehicle
Experimental: SNI surgery was performed as previously described. In short, mice were anesthetized by intraperitoneal (i.p.) injections of 10 mg/kg Xylazine (AniMedica GmbH—a LIVISTO company, Senden, Germany) and 100 mg/kg Ketamine (AniMedica GmbH—a LIVISTO company, Senden, Germany). The skin on the lateral surface of the thigh was incised and the sciatic nerve exposed by separating the biceps femoris muscle through incision of the connective tissue without wounding the muscle. The common peroneal and tibial nerves were ligated with 4-0 Vicryl (Sh-1 plus; Raritan, NJ, USA) and a portion of 3 mm length was excised around the ligation site. Care was taken to avoid any mechanical damage to the sural nerve. After dissection, the muscle and skin were sutured using 4-0 Vicryl. Mice were left to recover at 37 °C until they regained consciousness.
The von Frey test was performed as previously described. In brief, mice were placed in a Plexiglas chamber on an elevated iron-mesh floor and allowed to habituate before testing. […] Withdrawal thresholds were calculated according to the up-and-down method. Von Frey results were analysed using repeated measure ANOVA.

[4] = design: method as in PMID 21796370; settings: CBD orally given to mice; cited from earlier work
[5] = high dose, oral gavage (40 mg/kg THC+ extract, 20 mg/kg pure THC), plasma, brain and spinal cord

SMILES | time detectable in organs including the brain after application [1] | time of maximum CBD concentration ([2]; pure CBD compound, 1 and 20 mg/kg bodyweight, oral) [h] | absorption rate of CBD compared with THC, brain ([2]; pure compounds, oral, brain) [fold] | absorption rate of CBD compared with THC, spinal cord ([2]; pure compounds, oral, spinal cord) [fold] | effect on mechanical withdrawal thresholds (von Frey) [3] | brain–plasma ratio [4] | time of peak concentration of OH-THC ([2]; high dose, oral (40 mg/kg THC+ extract, 20 mg/kg pure THC), brain tissue) [h] | time at which Δ9-THC was detectable in all tissues [2, 5] [h] | time of maximum Δ9-THC concentration [2, 5] [h] | Δ9-THC concentrations in all sample types ([2]; low dose, oral gavage (2 mg/kg THC+ extract, 1 mg/kg pure THC), plasma, brain and spinal cord)
C=C(C)[C@@H]1CCC(C)=C[C@H]1c1c(O)cc(CCCCC)cc1O [CBD, cannabidiol] | more than 24 h | 2 | 2.8 | 1.7 | alleviated mechanical hypersensitivity | 3.54 | – | – | – | –
CCCCCc1cc(O)c2c(c1)OC(C)(C)[C@@H]1CCC(C)=C[C@@H]21 [pure THC, Δ9-Tetrahydrocannabinol] | more than 24 h | – | – | – | did not affect mechanical withdrawal thresholds | – | 2 | 1 | 2 | negligible concentrations
